Test results reported in patent US11123355B2, “Antiviral benzyl-amine phosphodiamide compounds” (Merck Sharp & Dohme Corp., priority 2016, dated 2021).
Like-named read-outs stand apart in the source and are kept apart here.

Tests used:
[1] = Prodrug Stability Assay in Bio-Relevant Media (FaSSIF with Pancreatin); type: in vitro ADME; conditions: 0.5 mg/mL Pancreatin in FaSSIF, 37° C.; HPLC peak area of prodrug at 5 h divided by that at 0 h
Protocol: Prodrug Stability Assay in Bio-Relevant Media
The following assay was employed to evaluate the stability of the prodrugs in simulated gastrointestinal tract conditions. Preparation of fasted state simulated intestinal fluid (FaSSIF) using Phares SIF Powder was carried out according to protocols from Phare Drug Delivery AG (Baselland, Switzerland). For sample preparation, 10 μL stock solutions (10 mM) of prodrug substance in DMSO was added to 990 μL of 0.5 mg/mL Pancreatin solution (Fisher CAS #8049-47-6) in FaSSIF. Two samples were prepared for each compound. If the sample was a clear solution, it was directly analyzed by HPLC. If the sample was not clear, the sample was diluted with 100% MeCN, maintained at 37° C. and observed 5 h later. If the sample was clear, HPLC analysis was directly performed. If the sample was still not clear, the sample was diluted with 100% ACN and assayed by HPLC. All the samples were vortexed for 3 min and observed before injection. For the diluted samples, the area is multiplied by a dilution factor when the data is analyzed. The analysis was carried out with an Agilent 1100 series HPLC with autosampler. The column was a Poroshell 120 EC-C18, 4.6×50 mm, 2.7 μm. The flow rate was 1.8 mL/min, and the injection volume was 5 or 10 μL. UV detection was in the range 210-400 nm. The mobile phase consisted of solvent A (water plus 10 mM tetrabutylammonium bromide) and solvent B (acetonitrile) with a gradient of: 90% solvent A at 0 min, changing to 95% solvent B over 6 min, maintaining for 1.5 min, then reverting to 90% solvent A over 1.6 min. The HPLC peak area of the prodrug at 5 h was divided by the HPLC peak area of the prodrug at 0 h, to generate the % claimed parent ratio, which is summarized in Table 2 for gastrointestinal (GI) Tract stability.

HIV-1 (H9/IIB strain) = assay: Multiple Round HIV-1 Infection Assay (Viking Assay) in MT4-GFP cells; type: cell-based; conditions: inhibition of reproductive ratio R0
Summary of the method: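 MT-4 cells with tat/rev-dependent GFP reporter infected overnight with virus at MOI ~0.01, then incubated in RPMI with 10% or 50% normal human serum with 10-point 3-fold dilutions (typically 8.4 μM–0.42 nM final). Green cells counted at ~48 and ~72 h to give R0; IC50 from 4-parameter fit of R0 inhibition.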

[2] = MT4-GFP cells infected with HIV-1, 10% normal human serum, read-out: Viking, IC50 (10% NHS)
[3] = MT4-GFP cells infected with HIV-1, 50% normal human serum, read-out: Viking, IC50 (50% NHS)

Row | Molecule | GI Tract stability (%) [1] [%] | IC50 (HIV-1 (H9/IIB strain); [2]) [nM] | IC50 (HIV-1 (H9/IIB strain); [3]) [nM]
1 | CCCOC(=O)C(C)(C)N[P@@](=O)(CO[C@H](C)Cn1cnc2c(N)ncnc21)N[C@H](C)c1cccc(F)c1 [Example 9B, propyl 2-(((R)-((((R)-1-(6-amino-9H-purin-9-yl)propan-2-yl)oxy)methyl)(((R)-1-(3-fluorophenyl)ethyl)amino)phosphoryl)ami-no)-2-methylpropanoate and propyl 2-(((S)-((((R)-1-(6-amino-9H-purin-9-yl)propan-2-yl)oxy)methyl)(((R)-1-(3-fluorophenyl)ethyl)amino)phosphoryl)ami-no)-2-methylpropanoate] | 90.9 | 12 | 130
2 | CCCOC(=O)C(C)(C)NP(=O)(CO[C@H](C)Cn1cnc2c(N)ncnc21)N[C@H](C)c1ccc(C(F)(F)F)cc1 (stereo partly drawn) [Example 12B, propyl 2-(((R)-((((R)-1-(6-amino-9H-purin-9-yl)propan-2-yl)oxy)methyl)(((R)-1-(4-(trifluoromethyl)phenyl)ethyl)amino)phos-phoryl)amino)-2-methylpropanoate and propyl 2-(((S)-((((R)-1-(6-amino-9H-purin-9-yl)propan-2-yl)oxy)methyl)(((R)-1-(4-(trifluoromethyl)phenyl)ethyl)amino)phos-phoryl)amino)-2-methylpropanoate] | 99.1 | 2.2 | 11
3 | CCCOC(=O)C(C)(C)NP(=O)(CO[C@H](C)Cn1cnc2c(N)ncnc21)N[C@@H](C)c1ccc(OC(F)(F)F)cc1 (stereo partly drawn) [Example 19A, propyl 2-(((R)-((((R)-1-(6-amino-9H-purin-9-yl)propan-2-yl)oxy)methyl)(((S)-1-(4-(trifluoromethoxy)phenyl)ethyl)amino)phos-phoryl)amino)-2-methylpropanoate and propyl 2-(((S)-((((R)-1-(6-amino-9H-purin-9-yl)propan-2-yl)oxy)methyl)(((S)-1-(4-(trifluoromethoxy)phenyl)ethyl)amino)phos-phoryl)amino)-2-methylpropanoate] | 98.1 | 2.7 | 12
4 | CCCOC(=O)C(C)(C)NP(=O)(CO[C@H](C)Cn1cnc2c(N)ncnc21)N[C@H](C)c1ccc(OC(F)(F)F)cc1C (stereo partly drawn) [Example 21B, Propyl 2-(((R)-((((R)-1-(6-amino-9H-purin-9-yl)propan-2-yl)oxy)methyl)(((R)-1-(2-methyl-4-(trifluoromethoxy)phenyl)ethyl)amino)phos-phoryl)amino)-2-methylpropanoate and propyl 2-(((S)-((((R)-1-(6-amino-9H-purin-9-yl)propan-2-yl)oxy)methyl)(((R)-1-(2-methyl-4-(trifluoromethoxy)phenyl)ethyl)amino)phos-phoryl)amino)-2-methylpropanoate] | 71.5 | 1 | 5.8
5 | CCCOC(=O)C(C)(C)NP(=O)(CO[C@H](C)Cn1cnc2c(N)ncnc21)N[C@H](c1cccc(OC)c1)C(F)(F)F (stereo partly drawn) [Example 25A, propyl 2-(((R)-((((R)-1-(6-amino-9H-purin-9-yl)propan-2-yl)oxy)methyl)(((R)-2,2,2-trifluoro-1-(3-methoxyphenyl)ethyl)amino)phosphoryl)a-mino)-2-methylpropanoate and propyl 2-(((S)-((((R)-1-(6-amino-9H-purin-9-yl)propan-2-yl)oxy)methyl)(((R)-2,2,2-trifluoro-1-(3-methoxyphenyl)ethyl)amino)phosphoryl)a-mino)-2-methylpropanoate] | 70.3 | 4.6 | 54
6 | CCCOC(=O)C(C)(C)N[P@@](=O)(CO[C@H](C)Cn1cnc2c(N)ncnc21)N[C@H](C)c1ccc(Cl)cc1C [Example 29B, propyl 2-(((R)-((((R)-1-(6-amino-9H-purin-9-yl)propan-2-yl)oxy)methyl)(((R)-1-(4-chloro-2-methylphenyl)ethyl)amino)phosphoryl)ami-no)-2-methylpropanoate and propyl 2-(((S)-((((R)-1-(6-amino-9H-purin-9-yl)propan-2-yl)oxy)methyl)(((R)-1-(4-chloro-2-methyphenyl)ethyl)amino)phosphoryl)ami-no)-2-methylpropanoate] | 12.1 | 2.5 | 21
7 | CCCOC(=O)C(C)(C)NP(=O)(CO[C@H](C)Cn1cnc2c(N)ncnc21)N[C@H](C)c1ccc(C#N)cc1 (stereo partly drawn) [Example 31B, propyl 2-(((R)-((((R)-1-(6-amino-9H-purin-9-yl)propan-2-yl)oxy)methyl)(((R)-1-(4-cyanophenyl)ethyl)amino)phosphoryl)ami-no)-2-methylpropanoate and propyl 2-(((S)-((((R)-1-(6-amino-9H-purin-9-yl)propan-2-yl)oxy)methyl)(((R)-1-(4-cyanophenyl)ethyl)amino)phosphoryl)ami-no)-2-methylpropanoate] | 90.6 | 8.8 | 110
8 | CCCOC(=O)C(C)(C)N[P@](=O)(CO[C@H](C)Cn1cnc2c(N)ncnc21)N(C)[C@H](C)c1ccc(OC(F)(F)F)cc1 [Example 33B, propyl 2-(((R)-((((R)-1-(6-amino-9H-purin-9-yl)propan-2-yl)oxy)methyl)(methyl((R)-1-(4-(trifluoromethoxy)phenyl)ethyl)amino)phos-phoryl)amino)-2-methylpropanoate and propyl 2-(((S)-((((R)-1-(6-amino-9H-purin-9-yl)propan-2-yl)oxy)methyl)(methyl((R)-1-(4-(trifluoromethoxy)phenyl)ethyl)amino)phos-phoryl)amino)-2-methylpropanoate] | 97.2 | 2.2 | 7.1
9 | CC(C)OC(=O)C(C)(C)NP(=O)(CO[C@H](C)Cn1cnc2c(N)ncnc21)N[C@H](C)c1ccc(OC(F)(F)F)cc1 (stereo partly drawn) [Example 34B, isopropyl 2-(((R)-((((R)-1-(6-amino-9H-purin-9-yl)propan-2-yl)oxy)methyl)(((R)-1-(4-(trifluoromethoxy)phenyl)ethyl)amino)phos-phoryl)amino)-2-methylpropanoate and isopropyl 2-(((S)-((((R)-1-(6-amino-9H-purin-9-yl)propan-2-yl)oxy)methyl)(((R)-1-(4-(trifluoromethoxy)phenyl)ethyl)amino)phos-phoryl)amino)-2-methylpropanoate] | 67.4 | 1.5 | 7.9
10 | CC(C)OC(=O)C(C)(C)N[P@@](=O)(CO[C@H](C)Cn1cnc2c(N)ncnc21)N[C@H](C)c1ccc(Cl)cc1 [Example 35B, isopropyl 2-(((R)-((((R)-1-(6-amino-9H-purin-9-yl)propan-2-yl)oxy)methyl)(((R)-1-(4-chlorophenyl)ethyl)amino)phosphoryl)ami-no)-2-methylpropanoate and isopropyl 2-(((S)-((((R)-1-(6-amino-9H-purin-9-yl)propan-2-yl)oxy)methyl)(((R)-1-(4-chlorophenyl)ethyl)amino)phosphoryl)ami-no)-2-methylpropanoate] | 70.5 | 2.9 | 22
11 | CC(C)OC(=O)C(C)(C)N[P@@](=O)(CO[C@H](C)Cn1cnc2c(N)ncnc21)NC1(c2ccc(Cl)cc2)CC1 [Example 37B, isopropyl 2-(((R)-((((R)-1-(6-amino-9H-purin-9-yl)propan-2-yl)oxy)methyl)((1-(4-chlorophenyl)cyclopropyl)amino)phos-phoryl)amino)-2-methylpropanoate and isopropyl 2-(((S)-((((R)-1-(6-amino-9H-purin-9-yl)propan-2-yl)oxy)methyl)((1-(4-chlorophenyl)cyclopropyl)amino)phos-phoryl)amino)-2-methylpropanoate] | 21.1 | 5.1 | 30
12 | isopropyl 2-(((R)-((((R)-1-(6-amino-9H- purin-9-yl)propan-2-yl)oxy)methyl)((2-(4- chlorophenyl)propan-2- yl)amino)phosphoryl)amino)-2- methylpropanoate and isopropyl 2-(((S)-((((R)-1-(6-amino-9H- purin-9-yl)propan-2-yl)oxy)methyl)((2-(4- chlorophenyl)propan-2- yl)amino)phosphoroyl)amino)-2- methylpropanoate [Example 36A] | 20.2 | 3.2 | 37
